Data reported in patent US12279621B1, “Insect neuropeptides 3” (Solasta Bio Limited, priority 2023, dated 2025).

Test system: Spodoptera frugiperda
Assay: Lepidoptera artificial diet assay
Assay type: in vivo
Conditions: unformulated peptide, final concentration 1×10^−4 M in diet, one L1 larva per cell, n=10, 168 hrs; compared to negative control vehicle and DDT
Experimental: One larva was assayed per cell. (n=10). Frontier Lepidoptera artificial diet was made up by preparing agar at 1% and then mixing it with artificial diet powder. Peptide solution was aliquoted in 10 cells and diet poured straight onto it. The final concentration of the peptide was 1×10^−4 M, and each peptide was aliquoted in 10 cells. Once the diet solidified and cooled down, one L1 larvae was infested in each cell. The trays were sealed with heat and let larva were allowed to develop for 168 hrs. Finally, pupation and mortality were scored for. Lepidoptera artificial diet assays were performed with SB-P-80, and compared to a negative control vehicle and the insecticide dichlorodiphenyltrichloroethane (DDT).

[Hy]-NADEDQQQSVDFTPRL-[NH2] (H-NADEDQQQSVDFTPRL-NH2) [SB-P-80, pyrokinin peptide according to the invention]
activity (pupation and mortality scored) in lepidoptera artificial diet assay: much higher activity
